The values that follow come from paper PMC4648050, “Discovery of Inhibitors of Trypanosoma brucei by Phenotypic Screening of a Focused Protein Kinase Library” (Chemmedchem, 2015).

In brackets after ≈: the same amount, converted by molar mass. Entries after “also recorded” stand apart in the source; their conditions may differ. Where two headings read alike, the source gives them in different places. Where only a bound is given, the exact number is not on record here.

Series [1] in a line: Intrinsic clearance in mouse liver microsomes. The format is in vitro ADME. The conditions noted are these: mouse hepatic microsomes, 0.5 μM compound. Here is the method:
Intrinsic clearance experiments: Test compound (0.5 μM) was incubated with female CD1 mouse liver microsomes (Xenotech LLC; 0.5 mg mL^−1 50 mM potassium phosphate buffer, pH 7.4), and the reaction started with the addition of excess NADPH (8 mg mL^−1 50 mM potassium phosphate buffer, pH 7.4). Immediately, at t0, then at 3, 6, 9, 15, and 30 min an aliquot (50 μL) of the incubation mixture was removed and mixed with MeCN (100 μL) to stop the reaction. Internal standard was added to all samples, the samples were centrifuged to sediment precipitated protein, and the plates were then sealed prior to UPLC–MS/MS analysis using a Quattro Premier XE instrument (Waters Corp., USA). XLfit (IDBS, UK) was used to calculate the exponential decay and consequently the rate constant (k) from the ratio of peak area of test compound to internal standard at each time point. The rate of intrinsic clearance [CLint, mL min^−1 (g liver)^−1] of each test compound was then calculated with Equation (3): […]
in which V [mL (mg protein)^−1] is the incubation volume per mg protein added, and microsomal protein yield is taken as 52.5 mg protein per gram of liver. Verapamil (0.5 μM) was used as a positive control to confirm acceptable assay performance.
For orientation: Microsomes from liver hold many membrane-bound enzymes, among them those of drug oxidation.

Series [2] is described as follows: Plasma protein binding (equilibrium dialysis). As to conditions: mouse plasma, equilibrium dialysis; for fraction unbound at 5 h, 10 μg g^−1: female, CD1, read-out: PPB. The format is in vitro ADME. How it is done: Plasma protein binding experiments: In brief, a 96-well equilibrium dialysis apparatus was used to determine the free fraction in plasma for each compound (HT Dialysis LLC, Gales Ferry, CT, USA). Membranes (12-14 kDa cutoff) were conditioned in deionised H2O for 60 min, followed by conditioning in 80:20 deionised H2O/EtOH for 20 min, and then rinsed in isotonic buffer before use. Female CD1 mouse plasma was removed from the freezer and allowed to thaw on the day of experiment. Thawed plasma was then centrifuged (Allegra […], Beckman Coulter, USA), spiked with test compound (10 μg g^-1), and 150 μL aliquots (n=6 replicate determinations) loaded into the 96-well equilibrium dialysis plate. Dialysis against isotonic buffer (150 μL) was carried out for 5 h in a temperature-controlled incubator at ∼37 °C (Barworld Scientific Ltd., UK) using an orbital microplate shaker at 125 rpm (Barworld Scientific). At the end of the incubation period, aliquots of plasma or buffer were transferred to micronic tubes (Micronic B.V., the Netherlands), and the composition in each tube was balanced with control fluid such that the volume of buffer to plasma is the same. Sample extraction was performed by the addition of 400 μL MeCN containing an appropriate internal standard. Samples were allowed to mix for 1 min and then centrifuged at 3000 rpm in 96-well blocks for 15 min (Allegra […], Beckman Coulter, USA). All samples were analysed by UPLC-MS/MS on a Quattro Premier XE Mass Spectrometer (Waters Corp.). The unbound fraction was determined as the ratio of the peak area in buffer to that in plasma.

Series [3] concerns T. b. brucei. Put plainly: Trypanosome proliferation assay. As to conditions: for EC50: geometric mean of two or more determinations, standard cell viability (resazurin) assay, read-out: EC50 T. b. brucei; for fold loss of activity (T. b. brucei EC50): relative to the comparator compound. The format is cell-based, Trypanosoma brucei brucei. Here is the method: (§1) Trypanosome and MRC5 proliferation assay: Measurement of inhibition of the proliferation of MRC5 cells (human lung fibroblasts) and T. brucei bloodstream-stage cells was performed using a modification of a cell viability assay previously described.[35, 36] Compounds ([…] to 0.5 nM) were incubated with 2×10^3 cells per well in 0.2 mL of the appropriate culture medium (MEM with 10 % foetal bovine serum for MRC5 cells) in clear 96-well plates. Plates were incubated at 37 °C in the presence of 5 % CO2 for 69 h. Resazurin was then added to a final concentration of 50 μM, and plates were incubated as above for a further 4 h before being read on a BioTek Flx800 fluorescence plate reader.

A short description of series [4]: Kinetic aqueous solubility (laser nephelometry). Type of series: physicochemical. As to conditions: Milli-Q water with 2.5% DMSO, kinetic from dmso stock, range 250–12 μM, read-out: Aq. Sol. (aqueous kinetic solubility). Here is the method: Solubility experiments: The kinetic aqueous solubility of the test compounds was measured using laser nephelometry. Compounds were subject to serial dilution from 10 mM to 0.5 mM in DMSO. An aliquot was then mixed with Milli-Q H2O to obtain an aqueous dilution plate with a final concentration range of 250–12 μM, with a final DMSO concentration of 2.5 %. Triplicate aliquots were transferred to a flat-bottomed polystyrene plate which was immediately read on the NEPHELOstar (BMG Lab Technologies). The amount of laser scatter caused by insoluble particulates (relative nephelometry units, RNU) was plotted against compound concentration using a segmental regression fit, with the point of inflection being quoted as the compounds′ aqueous solubility (in μM).

In series [5] the test system is MRC5 cells (human lung fibroblasts). Put plainly: MRC5 proliferation assay. Type of series: cell-based. As to conditions: geometric mean of two or more determinations. How it is done: as §1
For series [6], the system named is T. brucei bloodstream-stage cells. The experiment in a line: Static–cidal (SC) assay. The format is cell-based, Trypanosoma brucei brucei. As to conditions: for EC50 / MCC: Trypanosoma brucei; for EC50: 48 h; for MCC: static–cidal assay in triplicate, read-out: MCC (minimal cidal concentration); for Mode: static/cidal classification from growth curves; for mode of antiparasitic effect (in words): text and figure legend, at concentrations tested; for plateau of dose–response curve (inhibition): static–cidal dose–response curve. Here is the method: Determination of cidality against T. brucei bloodstream-stage cells was performed using a static–cidal (SC) assay as previously reported.[26] Briefly, bloodstream-form trypanosomes were seeded into 384-well plates at 4×10^5 mL^−1 (50 μL per well), followed by immediate addition of resazurin (50 μM final) to one of the plates, and all plates were incubated at 37 °C, 5 % CO2. After 4 h the t0 plate was read using a PerkinElmer Victor 3 plate reader (λex=528 nm, λem=590 nm). The second plate was processed in the same manner 20 h later, and at 44 h the last plate was processed. The minimum cidal concentration (MCC) is defined as the lowest concentration of drug that results in a decrease of resorufin signal over time. For dose–response curves from this assay either a monophasic or a biphasic equation was used, depending on which one provided the best fit. For monophasic fits, the following four-parametric equation [Eq. (1)] was used:
in which A=percent inhibition at bottom, B=percent inhibition at top, C=EC50, D=slope, x=inhibitor concentration, and y=percent inhibition. Equation (2) was used for biphasic fits:
for which A=percent inhibition at mid-plateau, B=slope, C=log[SC EC50(1)], D=log[SC EC50(2)]. Thus SC EC50(1) is the EC50 for the first phase of the curve, and SC EC50(2) is that for the second phase. Inhibition at the bottom of the curve is fixed at 0 % and at the top, 100 %.

[7] abbreviates: static cidal EC50, first site/phase, read-out: SC EC50(1).
Where [8] appears, read: static cidal EC50, second site/phase, read-out: SC EC50(2).

Broadly, the EC50 is the midpoint of the concentration-response curve. The term kinetic solubility denotes solubility judged after dilution from a stock solution rather than from solid. The compound `O=c1[nH]c2ncc(-c3ccccc3)nc2n1C1CCCCC1` [Compound 19] yielded a CLint in series [1] of 3.6 mL/min/g. Further, in series [2], the fraction unbound at 5 h, 10 μg g^−1 worked out at 0.008. The PPB in series [2] was determined as 0.8 % free. In addition, the EC50 in series [3] (Trypanosoma brucei) was 40 nM; in series [3], 44 nM; in series [5] it was above 50000 nM. The kinetic solubility in series [4] is 110 µM (≈ 32.4 µg/mL).

As to `COc1ccc(-c2cnc3[nH]c(=O)n(C4CCCCC4)c3n2)cc1` [Compound 20], in series [2], the fraction unbound at 5 h, 10 μg g^−1 came out at 0.007. For the same compound, the values for the EC50 in series [3] (Trypanosoma brucei) and in series [5] were 330 nM and 24000 nM, respectively.

As to `O=c1[nH]c2ncc(-c3ccc(CO)cc3)nc2n1C1CCCCC1` [Compound 21], in series [2], the fraction unbound at 5 h, 10 μg g^−1 worked out at 0.047. Further, the half-maximal effective concentration (EC50) in series [3] (Trypanosoma brucei) was 400 nM; in series [5], above 50000 nM. For the same compound, the “fold loss of activity (T. b. brucei EC50)” value in series [3] stood at 10 fold.

As to `O=c1[nH]c2ncc(-c3cccc(CO)c3)nc2n1C1CCCCC1` [Compound 24], the EC50 in series [6] (setting [7]) was 70 nM; in series [6] (setting [8]), 30000 nM; in series [3] (Trypanosoma brucei) it was 30 nM; in series [5] it was above 50000 nM. In series [6], the MCC was above 50 µM. Moreover, the Mode entry in series [6] is recorded as “S”. The “mode of antiparasitic effect (in words)” value in series [6] was “growth-slowing or static behaviour; also recorded: static at concentration tested”. Besides, the solubility (kinetic) in series [4] is above 250 µM.

Turning to `O=c1[nH]c2ncc(-c3ccccc3F)nc2n1C1CCCCC1` [Compound 26], the values for the EC50 in series [6] (setting [7]), in series [3] (Trypanosoma brucei) and in series [5] were 90 nM, 60 nM and above 50000 nM, respectively. The MCC in series [6] is above 50 µM. Further, the “mode of antiparasitic effect (in words)” value in series [6] is given as “growth-slowing or static behaviour”. In series [2], the fraction unbound at 5 h, 10 μg g^−1 amounted to 0.007. Besides, the solubility (kinetic) in series [4] came out at 20 µM (≈ 6.25 µg/mL).

`O=c1[nH]c2ncc(-c3cccnc3)nc2n1C1CCCCC1` [Compound 30]: the EC50 in series [6] (setting [7]) was 230 nM; in series [3] (Trypanosoma brucei), 100 nM; in series [3] it was 120 nM; in series [5] it was above 50000 nM. Further, the MCC in series [6] was above 50 µM. Also, in series [6], the “mode of antiparasitic effect (in words)” value was “growth-slowing or static behaviour”. Moreover, in series [1], the CLint was found to be 2.8 mL/min/g. The fraction unbound at 5 h, 10 μg g^−1 in series [2] is 0.023.

Compound `O=c1[nH]c2ncc(N3CCCCC3)nc2n1C1CCCCC1` [Compound 31, 1-Cyclohexyl-6-(piperidin-1-yl)-1H-imidazo[4,5-b]pyrazin-2(3H)-one] displayed a CLint in series [1] of 15 mL/min/g. Further, the PPB in series [2] is given as 0 % free. Moreover, the half-maximal effective concentration (EC50) in series [3] (Trypanosoma brucei) was 80 nM; in series [3], 77 nM; in series [5] it was above 50000 nM.

Take `O=c1[nH]c2ncc(N3CCOCC3)nc2n1C1CCCCC1` [Compound 32]: the EC50 is 50 nM in series [3] (Trypanosoma brucei) and above 50000 nM in series [5]. In addition, the kinetic solubility in series [4] amounted to 220 µM (≈ 66.7 µg/mL).

As to `O=c1[nH]c2ncc(-c3ccccc3)cc2n1C1CCCCC1` [Compound 51], the 50% effective concentration (EC50) in series [6] (setting [7]) is 20 nM; in series [6] (setting [8]), 41000 nM; in series [3] (Trypanosoma brucei), 54 nM; in series [3], 50 nM; in series [5], above 50000 nM. For the same compound, the MCC in series [6] is above 50 µM. Besides, the Mode entry in series [6] was “S^[d]”. In addition, in series [6], the “mode of antiparasitic effect (in words)” value is recorded as “growth-slowing or static behaviour”. Also, the CLint in series [1] was found to be 5.8 mL/min/g. The fraction unbound at 5 h, 10 μg g^−1 in series [2] is 0.029. The solubility (kinetic) in series [4] is 36 µM (≈ 10.6 µg/mL).

For the compound `O=c1[nH]c2ncc(-c3cccnc3)cc2n1C1CCCCC1` [Compound 55], the EC50 in series [6] (setting [7]) was 330 nM; in series [3] (Trypanosoma brucei) it was 230 nM; in series [5], above 50000 nM. The MCC in series [6] is above 50 µM. In series [6], the “mode of antiparasitic effect (in words)” value is “growth-slowing or static behaviour”. For the same compound, the CLint in series [1] was found to be 2.7 mL/min/g. Moreover, the fraction unbound at 5 h, 10 μg g^−1 in series [2] was 0.11. Also, in series [3], the “fold loss of activity (T. b. brucei EC50)” value is on record as “approximately 2 fold”. Further, in series [4], the solubility (kinetic) stood at 180 µM (≈ 53 µg/mL).

Regarding `c1ccc(-c2cnc3[nH]nc(C4CCCCC4)c3c2)cc1` [Compound 60], the EC50 in series [6] (setting [7]) was 80 nM; in series [6] (setting [8]) it was 7900 nM; in series [3] (Trypanosoma brucei), 59 nM; in series [3], 60 nM; in series [5], above 50000 nM. Further, the MCC in series [6] amounted to 17 µM. Moreover, in series [6], the “plateau of dose–response curve (inhibition)” value worked out at 100 % inhibition. Also, in series [6], the “mode of antiparasitic effect (in words)” value was “cidal behaviour”. The CLint in series [1] was 15 mL/min/g. In addition, in series [2], the fraction unbound at 5 h, 10 μg g^−1 was 0.014. Also, in series [4], the kinetic solubility is 20 µM (≈ 5.55 µg/mL).

Turning to `c1cncc(-c2cnc3[nH]nc(C4CCCCC4)c3c2)c1` [Compound 63], the EC50 in series [6] (setting [7]) was 280 nM; in series [6] (setting [8]) it was 6100 nM; in series [3] (Trypanosoma brucei), 260 nM; in series [5] it was above 50000 nM. In addition, the MCC in series [6] was found to be 17 µM. In addition, the “plateau of dose–response curve (inhibition)” value in series [6] is given as 100 % inhibition. In series [6], the “mode of antiparasitic effect (in words)” value is reported as “cidal behaviour”. Further, the CLint in series [1] worked out at 6.6 mL/min/g. In addition, the fraction unbound at 5 h, 10 μg g^−1 in series [2] was 0.052. Further, the kinetic solubility in series [4] was found to be 250 µM (≈ 69.6 µg/mL).
